Measurements reported in patent publication US20240092835A1, “NOVEL PEPTIDES CAPABLE OF ALTERING NK CELL ACTIVITY” (Massachusetts Institute of Technology, priority 2022, published 2024).
Where no end group is shown, it is not given here.

Tests used:
CD94/NKG2A = CD94/NKG2A (Homo sapiens, UniProt P26715+Q13241); test: Steady-state surface plasmon resonance of peptide-HLA-E complex with CD94/NKG2A; format: binding; settings: for Binding of peptide-HLA-E complexes to CD94/NKG2A normalized to a theoretical Rmax: steady-state SPR
Description: (§1) Binding affinity of novel peptides linked to HLA-E was determined using surface plasmon resonance (SPR), a methodology used to study protein-protein interactions (Tables 15-19). The peptide-HLA-E complex (generated as a single chain trimer) was immobilized on the sensor chip surface and CD94/NKG2A or CD94/NKG2C were flowed over. Steady-state surface plasmon resonance experiments were performed with a Biacore T200 instrument. CD94/NKG2x in HBS-EP+ buffer was injected as analyte in a concentration range of 0.1 μM to 102.4 μM and flow rate of 10 μL/min at 25° C. Data was fit with Prism 9.4 (GraphPad Software Inc; San Diego CA) to a “one site, specific binding” model. Series S CM5 chips were coupled to neutravidin and utilized. Biotinylated pMHC was immobilized at approximately 400 RU. KD values calculated by Biacore software are reported. Rmax, fit values were calculated by Biacore software. Rmax, theoretical values were calculated using the analyte/ligand mass ratio (0.66) multiplied by the amount of ligand coupled to the chip.

CD94/NKG2C = CD94/NKG2C (Homo sapiens, UniProt P26717+Q13241); test: Steady-state surface plasmon resonance of peptide-HLA-E complex with CD94/NKG2C; format: binding; settings: for Binding of peptide-HLA-E complexes to CD94/NKG2C normalized to a theoretical Rmax: steady-state SPR
Description: as §1

CD94/NKG2A, sequence (P26715 94-233 limits assumed): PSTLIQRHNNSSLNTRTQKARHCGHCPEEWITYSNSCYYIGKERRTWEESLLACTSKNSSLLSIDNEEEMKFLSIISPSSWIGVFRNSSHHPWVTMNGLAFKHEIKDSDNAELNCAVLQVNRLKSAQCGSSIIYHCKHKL
CD94/NKG2A, sequence (Q13241 32-179 limits assumed): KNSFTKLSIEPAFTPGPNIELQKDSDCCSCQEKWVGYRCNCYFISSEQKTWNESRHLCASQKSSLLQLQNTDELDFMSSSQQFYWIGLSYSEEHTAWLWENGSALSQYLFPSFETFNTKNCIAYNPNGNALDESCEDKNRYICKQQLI
CD94/NKG2C, sequence (P26717 94-231 limits assumed): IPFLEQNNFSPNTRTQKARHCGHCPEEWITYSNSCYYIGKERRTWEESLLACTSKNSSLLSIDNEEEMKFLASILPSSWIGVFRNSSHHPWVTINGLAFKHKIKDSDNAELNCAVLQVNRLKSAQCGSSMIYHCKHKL
CD94/NKG2C, sequence (Q13241 32-179 limits assumed): as the sequence (Q13241 32-179 limits assumed) above

Sequence: TLPKRGLFL [human2, TLPKRGLFL]
- binding of peptide-HLA-E complex to CD94/NKG2A normalized to a fitted Rmax (CD94/NKG2A; CD94/NKG2A concentration 0 μM): −0.007
- binding of peptide-HLA-E complex to CD94/NKG2A normalized to a fitted Rmax (CD94/NKG2A; CD94/NKG2A concentration 0.1 μM): 0.023
- binding of peptide-HLA-E complex to CD94/NKG2A normalized to a fitted Rmax (CD94/NKG2A; CD94/NKG2A concentration 0.2 μM): 0.046
- binding of peptide-HLA-E complex to CD94/NKG2A normalized to a fitted Rmax (CD94/NKG2A; CD94/NKG2A concentration 0.4 μM): 0.094
- binding of peptide-HLA-E complex to CD94/NKG2A normalized to a fitted Rmax (CD94/NKG2A; CD94/NKG2A concentration 0.8 μM): 0.173
- binding of peptide-HLA-E complex to CD94/NKG2A normalized to a fitted Rmax (CD94/NKG2A; CD94/NKG2A concentration 1.6 μM): 0.293
- binding of peptide-HLA-E complex to CD94/NKG2A normalized to a fitted Rmax (CD94/NKG2A; CD94/NKG2A concentration 3.2 μM): 0.450
- binding of peptide-HLA-E complex to CD94/NKG2A normalized to a fitted Rmax (CD94/NKG2A; CD94/NKG2A concentration 6.4 μM): 0.618
- binding of peptide-HLA-E complex to CD94/NKG2A normalized to a fitted Rmax (CD94/NKG2A; CD94/NKG2A concentration 12.8 μM): 0.766
- binding of peptide-HLA-E complex to CD94/NKG2A normalized to a fitted Rmax (CD94/NKG2A; CD94/NKG2A concentration 25.6 μM): 0.873
- binding of peptide-HLA-E complex to CD94/NKG2A normalized to a fitted Rmax (CD94/NKG2A; CD94/NKG2A concentration 51.2 μM): 0.942
- binding of peptide-HLA-E complex to CD94/NKG2A normalized to a fitted Rmax (CD94/NKG2A; CD94/NKG2A concentration 102.4 μM): 0.954
- Binding of peptide-HLA-E complexes to CD94/NKG2A normalized to a theoretical Rmax (CD94/NKG2A; CD94/NKG2A analyte concentration 0.000 μM): −0.005
- Binding of peptide-HLA-E complexes to CD94/NKG2A normalized to a theoretical Rmax (CD94/NKG2A; CD94/NKG2A analyte concentration 0.100 μM): 0.017
- Binding of peptide-HLA-E complexes to CD94/NKG2A normalized to a theoretical Rmax (CD94/NKG2A; CD94/NKG2A analyte concentration 0.200 μM): 0.034
- Binding of peptide-HLA-E complexes to CD94/NKG2A normalized to a theoretical Rmax (CD94/NKG2A; CD94/NKG2A analyte concentration 0.400 μM): 0.070
- Binding of peptide-HLA-E complexes to CD94/NKG2A normalized to a theoretical Rmax (CD94/NKG2A; CD94/NKG2A analyte concentration 0.800 μM): 0.131
- Binding of peptide-HLA-E complexes to CD94/NKG2A normalized to a theoretical Rmax (CD94/NKG2A; CD94/NKG2A analyte concentration 1.600 μM): 0.221
- Binding of peptide-HLA-E complexes to CD94/NKG2A normalized to a theoretical Rmax (CD94/NKG2A; CD94/NKG2A analyte concentration 3.200 μM): 0.339
- Binding of peptide-HLA-E complexes to CD94/NKG2A normalized to a theoretical Rmax (CD94/NKG2A; CD94/NKG2A analyte concentration 6.400 μM): 0.465
- Binding of peptide-HLA-E complexes to CD94/NKG2A normalized to a theoretical Rmax (CD94/NKG2A; CD94/NKG2A analyte concentration 12.800 μM): 0.577
- Binding of peptide-HLA-E complexes to CD94/NKG2A normalized to a theoretical Rmax (CD94/NKG2A; CD94/NKG2A analyte concentration 25.600 μM): 0.657
- Binding of peptide-HLA-E complexes to CD94/NKG2A normalized to a theoretical Rmax (CD94/NKG2A; CD94/NKG2A analyte concentration 51.200 μM): 0.709
- Binding of peptide-HLA-E complexes to CD94/NKG2A normalized to a theoretical Rmax (CD94/NKG2A; CD94/NKG2A analyte concentration 102.400 μM): 0.718
- binding of peptide-HLA-E complex to CD94/NKG2C normalized to a fitted Rmax (CD94/NKG2C; CD94/NKG2C concentration 0 μM): −0.005
- binding of peptide-HLA-E complex to CD94/NKG2C normalized to a fitted Rmax (CD94/NKG2C; CD94/NKG2C concentration 0.1 μM): 0.003
- binding of peptide-HLA-E complex to CD94/NKG2C normalized to a fitted Rmax (CD94/NKG2C; CD94/NKG2C concentration 0.2 μM): 0.009
- binding of peptide-HLA-E complex to CD94/NKG2C normalized to a fitted Rmax (CD94/NKG2C; CD94/NKG2C concentration 0.4 μM): 0.023
- binding of peptide-HLA-E complex to CD94/NKG2C normalized to a fitted Rmax (CD94/NKG2C; CD94/NKG2C concentration 0.8 μM): 0.046
- binding of peptide-HLA-E complex to CD94/NKG2C normalized to a fitted Rmax (CD94/NKG2C; CD94/NKG2C concentration 1.6 μM): 0.089
- binding of peptide-HLA-E complex to CD94/NKG2C normalized to a fitted Rmax (CD94/NKG2C; CD94/NKG2C concentration 3.2 μM): 0.168
- binding of peptide-HLA-E complex to CD94/NKG2C normalized to a fitted Rmax (CD94/NKG2C; CD94/NKG2C concentration 6.4 μM): 0.281
- binding of peptide-HLA-E complex to CD94/NKG2C normalized to a fitted Rmax (CD94/NKG2C; CD94/NKG2C concentration 12.8 μM): 0.443
- binding of peptide-HLA-E complex to CD94/NKG2C normalized to a fitted Rmax (CD94/NKG2C; CD94/NKG2C concentration 25.6 μM): 0.621
- binding of peptide-HLA-E complex to CD94/NKG2C normalized to a fitted Rmax (CD94/NKG2C; CD94/NKG2C concentration 51.2 μM): 0.755
- binding of peptide-HLA-E complex to CD94/NKG2C normalized to a fitted Rmax (CD94/NKG2C; CD94/NKG2C concentration 102.4 μM): 0.867
- Binding of peptide-HLA-E complexes to CD94/NKG2C normalized to a theoretical Rmax (CD94/NKG2C; CD94/NKG2C analyte concentration 0 μM): −0.003
- Binding of peptide-HLA-E complexes to CD94/NKG2C normalized to a theoretical Rmax (CD94/NKG2C; CD94/NKG2C analyte concentration 0.1 μM): 0.002
- Binding of peptide-HLA-E complexes to CD94/NKG2C normalized to a theoretical Rmax (CD94/NKG2C; CD94/NKG2C analyte concentration 0.2 μM): 0.007
- Binding of peptide-HLA-E complexes to CD94/NKG2C normalized to a theoretical Rmax (CD94/NKG2C; CD94/NKG2C analyte concentration 0.4 μM): 0.017
- Binding of peptide-HLA-E complexes to CD94/NKG2C normalized to a theoretical Rmax (CD94/NKG2C; CD94/NKG2C analyte concentration 0.8 μM): 0.034
- Binding of peptide-HLA-E complexes to CD94/NKG2C normalized to a theoretical Rmax (CD94/NKG2C; CD94/NKG2C analyte concentration 1.6 μM): 0.066
- Binding of peptide-HLA-E complexes to CD94/NKG2C normalized to a theoretical Rmax (CD94/NKG2C; CD94/NKG2C analyte concentration 3.2 μM): 0.124
- Binding of peptide-HLA-E complexes to CD94/NKG2C normalized to a theoretical Rmax (CD94/NKG2C; CD94/NKG2C analyte concentration 6.4 μM): 0.207
- Binding of peptide-HLA-E complexes to CD94/NKG2C normalized to a theoretical Rmax (CD94/NKG2C; CD94/NKG2C analyte concentration 12.8 μM): 0.326
- Binding of peptide-HLA-E complexes to CD94/NKG2C normalized to a theoretical Rmax (CD94/NKG2C; CD94/NKG2C analyte concentration 25.6 μM): 0.457
- Binding of peptide-HLA-E complexes to CD94/NKG2C normalized to a theoretical Rmax (CD94/NKG2C; CD94/NKG2C analyte concentration 51.2 μM): 0.555
- Binding of peptide-HLA-E complexes to CD94/NKG2C normalized to a theoretical Rmax (CD94/NKG2C; CD94/NKG2C analyte concentration 102.4 μM): 0.638
